Drawing on article PMC6399515 (Insect Biochemistry and Molecular Biology, 2016), this text covers IC50 for 1 compound.

Data set [1] deals with T1, CYP6Z2 (Anopheles gambiae, UniProt A8I285).
T1 sequence (A8I285 1-492): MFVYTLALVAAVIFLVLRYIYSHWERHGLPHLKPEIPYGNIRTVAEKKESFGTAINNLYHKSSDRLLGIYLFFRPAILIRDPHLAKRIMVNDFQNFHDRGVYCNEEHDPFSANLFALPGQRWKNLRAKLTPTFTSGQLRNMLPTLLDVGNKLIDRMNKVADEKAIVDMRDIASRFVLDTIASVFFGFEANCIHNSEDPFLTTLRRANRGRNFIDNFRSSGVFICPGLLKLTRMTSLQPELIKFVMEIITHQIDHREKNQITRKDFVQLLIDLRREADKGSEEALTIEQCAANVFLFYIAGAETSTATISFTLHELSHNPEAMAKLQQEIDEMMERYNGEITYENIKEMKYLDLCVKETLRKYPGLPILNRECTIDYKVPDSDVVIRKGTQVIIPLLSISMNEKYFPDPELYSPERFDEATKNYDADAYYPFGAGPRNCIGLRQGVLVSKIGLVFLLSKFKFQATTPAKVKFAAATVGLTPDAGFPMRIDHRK
T1 sequence (Q86QH5 1-679 partner): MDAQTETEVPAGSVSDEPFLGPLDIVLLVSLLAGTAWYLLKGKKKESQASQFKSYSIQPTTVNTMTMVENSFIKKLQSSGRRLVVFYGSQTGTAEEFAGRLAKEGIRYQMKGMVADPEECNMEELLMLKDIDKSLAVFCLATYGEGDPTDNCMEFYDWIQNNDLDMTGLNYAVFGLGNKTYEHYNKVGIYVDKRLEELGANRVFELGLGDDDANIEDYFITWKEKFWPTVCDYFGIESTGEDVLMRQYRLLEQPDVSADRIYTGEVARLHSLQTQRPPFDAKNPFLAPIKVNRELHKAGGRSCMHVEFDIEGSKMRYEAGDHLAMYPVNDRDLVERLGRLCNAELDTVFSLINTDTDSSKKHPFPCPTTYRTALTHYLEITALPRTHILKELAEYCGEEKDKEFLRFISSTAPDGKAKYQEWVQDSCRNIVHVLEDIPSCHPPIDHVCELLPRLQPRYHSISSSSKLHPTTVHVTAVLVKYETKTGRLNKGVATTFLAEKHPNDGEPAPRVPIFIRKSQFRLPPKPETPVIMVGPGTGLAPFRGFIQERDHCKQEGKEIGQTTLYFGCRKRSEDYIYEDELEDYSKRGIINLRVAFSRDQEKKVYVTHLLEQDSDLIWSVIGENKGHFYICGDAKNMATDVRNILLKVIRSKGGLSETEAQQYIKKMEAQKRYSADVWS
T1 sequence (Q86QH4 1-128 partner): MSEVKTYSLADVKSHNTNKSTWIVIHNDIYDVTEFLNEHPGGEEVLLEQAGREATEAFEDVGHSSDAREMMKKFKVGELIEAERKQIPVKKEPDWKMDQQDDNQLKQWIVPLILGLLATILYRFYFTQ
Briefly: biochemical.

Data set [2] deals with T2, CYP6P2 (Anopheles gambiae, UniProt Q8T629, V81I).
T2 sequence (Q8T629 1-507 V81I): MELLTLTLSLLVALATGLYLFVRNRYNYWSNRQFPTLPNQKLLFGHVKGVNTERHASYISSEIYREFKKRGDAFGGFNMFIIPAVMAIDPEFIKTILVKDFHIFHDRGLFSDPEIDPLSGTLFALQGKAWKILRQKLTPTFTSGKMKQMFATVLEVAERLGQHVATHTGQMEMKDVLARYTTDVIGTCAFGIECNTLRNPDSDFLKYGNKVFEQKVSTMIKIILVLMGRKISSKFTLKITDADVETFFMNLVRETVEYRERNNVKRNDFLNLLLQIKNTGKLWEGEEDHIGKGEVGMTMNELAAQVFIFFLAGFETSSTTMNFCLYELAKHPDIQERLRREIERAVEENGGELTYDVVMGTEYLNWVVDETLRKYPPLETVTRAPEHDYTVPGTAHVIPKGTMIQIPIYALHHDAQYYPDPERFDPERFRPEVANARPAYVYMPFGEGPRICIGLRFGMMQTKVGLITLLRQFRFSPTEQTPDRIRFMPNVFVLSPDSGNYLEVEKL
T2 sequence (Q7QFI3 1-587 partner): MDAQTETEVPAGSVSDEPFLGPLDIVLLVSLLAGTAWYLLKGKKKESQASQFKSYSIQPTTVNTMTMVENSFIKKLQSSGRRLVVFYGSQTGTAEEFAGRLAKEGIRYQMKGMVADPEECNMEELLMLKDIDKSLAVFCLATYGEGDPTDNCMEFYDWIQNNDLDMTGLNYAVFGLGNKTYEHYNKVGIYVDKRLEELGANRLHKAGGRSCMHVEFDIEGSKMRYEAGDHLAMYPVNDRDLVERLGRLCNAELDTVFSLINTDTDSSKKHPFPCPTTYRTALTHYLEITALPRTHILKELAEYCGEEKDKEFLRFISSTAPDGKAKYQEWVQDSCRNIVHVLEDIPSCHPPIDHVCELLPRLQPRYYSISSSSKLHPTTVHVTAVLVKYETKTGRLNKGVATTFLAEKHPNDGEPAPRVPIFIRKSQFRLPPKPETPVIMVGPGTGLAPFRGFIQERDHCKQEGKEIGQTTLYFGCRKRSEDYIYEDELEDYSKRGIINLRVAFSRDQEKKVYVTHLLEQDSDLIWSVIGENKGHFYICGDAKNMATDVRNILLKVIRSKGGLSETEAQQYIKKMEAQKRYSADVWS
T2 sequence (Q86QH4 1-128 partner): T1 sequence (Q86QH4 1-128 partner)
Nature of the data set: biochemical. Conditions: IC50 of DEF metabolism.

For data set [3], the target named is T3, CYP6P3 (Anopheles gambiae, UniProt Q8T632).
T3 sequence (Q8T632 1-509): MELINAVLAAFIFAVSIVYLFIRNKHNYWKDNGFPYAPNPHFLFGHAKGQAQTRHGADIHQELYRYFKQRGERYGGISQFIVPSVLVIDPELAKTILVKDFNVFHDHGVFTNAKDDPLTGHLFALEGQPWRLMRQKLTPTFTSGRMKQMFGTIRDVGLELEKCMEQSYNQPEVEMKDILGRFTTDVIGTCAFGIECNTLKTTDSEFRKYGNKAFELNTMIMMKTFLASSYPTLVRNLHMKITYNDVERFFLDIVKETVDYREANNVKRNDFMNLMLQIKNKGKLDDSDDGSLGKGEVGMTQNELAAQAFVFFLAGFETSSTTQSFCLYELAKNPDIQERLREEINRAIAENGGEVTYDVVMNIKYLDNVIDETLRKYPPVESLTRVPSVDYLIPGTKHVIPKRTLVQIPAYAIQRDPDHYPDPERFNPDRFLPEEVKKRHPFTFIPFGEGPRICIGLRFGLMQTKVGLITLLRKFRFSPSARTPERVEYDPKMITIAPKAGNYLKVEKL
T3 sequence (Q86QH5 1-679 partner): T1 sequence (Q86QH5 1-679 partner)
T3 sequence (Q86QH4 1-128 partner): T1 sequence (Q86QH4 1-128 partner)
Nature of the data set: biochemical.

Data set [4] concerns the target CYP6M2 (Anopheles gambiae, UniProt Q7Q449). Briefly: biochemical.
The subject of data set [5] is all mosquito P450s of the panel apart from CYP6Z2 (CYP6M2, CYP6P2, CYP6P3, CYP6P4, CYP9J5). Briefly: in vitro. Conditions: Anopheles gambiae.
The target of data set [6] is T4, CYP9J5 (Anopheles gambiae, UniProt Q5TN57).
T4 sequence (Q5TN57 1-545): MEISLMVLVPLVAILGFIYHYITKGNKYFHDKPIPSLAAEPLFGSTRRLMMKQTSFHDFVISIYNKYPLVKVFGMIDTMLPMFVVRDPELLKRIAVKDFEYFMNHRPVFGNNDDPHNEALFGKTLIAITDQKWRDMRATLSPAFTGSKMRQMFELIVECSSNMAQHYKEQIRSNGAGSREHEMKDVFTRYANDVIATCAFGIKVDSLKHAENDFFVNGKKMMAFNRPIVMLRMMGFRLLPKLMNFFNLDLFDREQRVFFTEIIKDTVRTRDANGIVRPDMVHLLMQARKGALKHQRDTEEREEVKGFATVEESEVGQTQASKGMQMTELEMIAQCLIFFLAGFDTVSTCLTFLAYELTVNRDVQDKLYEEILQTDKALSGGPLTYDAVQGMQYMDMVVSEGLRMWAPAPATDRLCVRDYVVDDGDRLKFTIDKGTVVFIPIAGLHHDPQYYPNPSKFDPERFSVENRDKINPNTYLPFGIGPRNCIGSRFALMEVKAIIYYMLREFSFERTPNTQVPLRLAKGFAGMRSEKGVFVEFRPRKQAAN
T4 sequence (Q86QH5 1-679 partner): T1 sequence (Q86QH5 1-679 partner)
T4 sequence (Q86QH4 1-128 partner): T1 sequence (Q86QH4 1-128 partner)
Nature of the data set: biochemical.

A value given as a limit tells only on which side of the number the result lay.

Sequence of CYP6M2 (Q7Q449 1-499, one chain of several): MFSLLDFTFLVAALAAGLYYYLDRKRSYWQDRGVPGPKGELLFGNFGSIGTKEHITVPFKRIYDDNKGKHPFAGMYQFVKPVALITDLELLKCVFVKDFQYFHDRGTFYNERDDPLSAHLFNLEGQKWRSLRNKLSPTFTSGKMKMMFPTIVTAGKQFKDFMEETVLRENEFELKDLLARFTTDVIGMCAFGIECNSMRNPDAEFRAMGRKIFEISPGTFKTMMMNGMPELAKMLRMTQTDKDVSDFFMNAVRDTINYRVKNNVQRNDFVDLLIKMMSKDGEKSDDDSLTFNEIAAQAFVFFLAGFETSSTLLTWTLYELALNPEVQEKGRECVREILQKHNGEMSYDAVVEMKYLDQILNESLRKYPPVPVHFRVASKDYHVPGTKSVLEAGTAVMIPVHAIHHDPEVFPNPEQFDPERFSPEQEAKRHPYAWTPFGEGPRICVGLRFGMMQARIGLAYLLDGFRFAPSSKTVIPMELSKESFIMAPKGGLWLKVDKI

On to `CC1(C)[C@H](C(=O)O[C@H](C#N)c2cccc(Oc3ccccc3)c2)[C@@H]1C=C(Br)Br` [Deltamethrin, (S)-α-cyano-3-phenoxybenzyl (1R,3R)-cis-2,2-dimethyl-3-(2,2-dibromovinyl)-cyclopropanecarboxylate], for which the IC50 in data set [1] (IC50 of DEF metabolism) is 14 µM; in data set [1] (category of inhibition of DEF metabolism), over 10 µM; in data set [2], 4.97 µM; in data set [3], 3.17 µM; in data set [4], 4.24 µM; in data set [5] (pH 7.4, IC50 of DEF activity), 1 to 10 µM. In addition, the half-inhibitory concentration (IC50) in data set [5] (pH 7.4, category of inhibition of DEF activity) is 1 to 10 µM; in data set [6] it was 6.05 µM.
